Consider two molecules from ChEMBL document CHEMBL1157921, “Selective targeting of 2'-deoxy-5-fluorouridine to urokinase positive malignant cells in vitro” (Bioorg Med Chem Lett, 2010).

Holding throughout (format): functional, cell-based
Test [1] has as its system MCF7. In words: Cytotoxicity against human MCF7 cells overexpressing urokinase plasminogen activator at > 20.3 uM.
Test [2] concerns MDA-MB-231. In words: Cytotoxicity against human MDA-MB-231 cells overexpressing urokinase plasminogen activator.
The subject of test [3] is MCF7. Nature of the test: Cytotoxicity against human MCF7 cells overexpressing urokinase plasminogen activator at > 144 uM.

The structures appear in SMILES notation. The source made the active and inactive calls. No cut-off for these calls is given here.

Broadly, the IC50 is the concentration that gives 50% inhibition. On to `O=c1[nH]c(=O)n([C@H]2C[C@H](O)[C@@H](CO)O2)cc1F` [FLOXURIDINE], for which the inhibition result in test [1] is “inactive”. Further, the IC50 in test [2] turned out to be 210 nM. For the molecule `O=C(O)CCC(=O)O[C@H]1C[C@H](n2cc(F)c(=O)[nH]c2=O)O[C@@H]1CO`, the inhibition result in test [3] is “inactive”.
